Experimental data as given in patent US20250026734A1 (priority 2021, published 2025).
“And” between values parts separate entries of the source, which are not always exact repeats. Equal entries are not always repeated. Where two headings read alike, the source gives them in different places.

Tested on: SARS-CoV-2 strains
Assay type: cell-based

Question: Which results are given for `CCCCn1c(=O)c2ccc(NCCO)cc2c2cc(C(O)(C(F)(F)F)C(F)(F)F)ccc21` [NR-31]?
Answer: EC50 (read-out: EC50): 5.12 µM and 3.47 µM and 3.53 µM and 5.28 µM and 3.37 µM and 4.07 µM and 3.62 µM; EC50 (read-out: EC50 (inhibits cell death induced by SARS-CoV-2 infection by 50%)): 4.4 µM
